Here are results for two compounds from patent publication US20080181971A1, “Combination Cancer Treatments Comprising Elsamitrucin and Other Agents” (priority 2007, published 2008).

Each structure is given as a SMILES string. Where two headings read alike, the source gives them in different places.

Holding throughout (type): cell-based
Test [1] deals with Daudi human lymphoma cell line. Put plainly: MTT growth inhibition assay, single agents and fixed-ratio combinations with elsamitrucin (Chou-Talalay, CalcuSyn), Daudi. Particulars: Homo sapiens, Daudi. Here is the method:
(§1) These individual agents and their combinations were evaluated for in vitro activity against the HT29 colon carcinoma, SKMES non-small cell lung carcinoma, and Daudi B-lymphoblastic cell lines. Cell growth in 96-well microculture plates was determined with a semi-automated MTT assay. Efficacies of drug combinations were analyzed according to the methods of Chou and Talalay, utilizing CalcuSyn software. Twenty-one in vitro experiments were conducted to determine the individual and combined growth inhibitory activities of elsamitrucin and the ten selected agents in the three cell lines.
(§2) b. Cell Lines. The human HT29 colon carcinoma, SKMES non-small cell lung carcinoma, and Daudi B-lymphoblastic cell lines were originally obtained from ATCC (American Type Culture Collection). These cell lines have been maintained and stored as frozen stocks. […] The medium for Daudi cells was additionally supplemented with 1 mM sodium pyruvate.
(§3) c. Growth Inhibition Assay. Anti-proliferative activities against the HT29, SKMES, and Daudi cell lines were evaluated in vitro by the MTT assay. Cells (1,500-2,000 cells/well) were seeded in a 96-well microculture plate in 180 pL of medium/well. […] DMSO was present in all wells at a final concentration of 0.1%. […] When the appropriate cell density was attained in the control wells, the plates were centrifuged briefly, and 100 pL of the growth medium was removed. The cell cultures were incubated with 50 μL of MTT reagent (1 mg/mL in Dulbecco's phosphate-buffered saline) for 4 hr at 37° C. The resultant purple formazan precipitate was solubilized with 200 μL of 0.04 N HCl in isopropanol.
(§4) The results of each experiment were stored in Excel format.
(§5) d. Preliminary Experiments: Design and Data Analysis. […] The initial experiments utilized serial three-fold dilutions of the drugs to produce ten test concentrations over a broad concentration range. Based on the initial results, a narrower concentration range was selected, and serial 1:1.5 dilutions were utilized to produce ten test concentrations. Experiments were repeated as needed.
(§6) For assays that utilized lower dilution factors to produce narrower concentration ranges, the results were analyzed with both Prism and CalcuSyn (as described below) to allow comparison of the IC50 and Da, values. The results guided the selection of appropriate concentration ranges and concentration ratios for the combination experiments.
(§7) e. Combination Experiments: Design and Data Analysis. The fixed-ratio design of Chou was used for the combination experiments. For each experiment, the drug solutions were mixed at a ratio that was expected to provide approximately equipotent concentrations, and the mixture was serially diluted with medium containing 1% DMSO to yield 10× stock solutions of the test concentrations. […] Each agent was tested individually and in combination at seven concentrations. The concentration range selected for each assay was designed to bracket the concentrations that produced half-maximal effects (ED50) with each single agent and their mixture. The concentrations used for the single-drug assays were twice as high as their concentrations in the mixture. Each assay was performed in quadruplicate. For each drug combination, the individual agents and their mixture were assayed on the same 96-well plate. The effects of the individual drugs and their combinations were analyzed by the method of Chou and Talalay. The results of each experiment were entered into CalcuSyn (BIOSOFT) for dose-effect analysis.
(§8) where Acontrol and Adrug are the respective absorbances of vehicle control and drug-treated wells in the MIT assay.
(§9) where the slope, m, is related to the sigmoidicity of the dose-effect curve, with m=1, >1, and <1 indicating hyperbolic, sigmoidal, and reverse sigmoidal shapes, respectively.

The subject of test [2] is SKMES human non-small cell lung carcinoma cell line. Put plainly: MTT growth inhibition assay, single agents and fixed-ratio combinations with elsamitrucin (Chou-Talalay, CalcuSyn), SKMES. Particulars: Homo sapiens. As to the method:
as §1, §2, §3, §4, §5, §6, §7, §8, §9

Test [3] relates to HT29 human colon carcinoma cell line. Put plainly: MTT growth inhibition assay, single agents and fixed-ratio combinations with elsamitrucin (Chou-Talalay, CalcuSyn), HT29. The settings on record: Homo sapiens. Here is the method: as §1, §2, §3, §4, §5, §6, §7, §8, §9
Where [4] appears, read: Daudi growth inhibition, second agent alone, one value per plate, Table 8 (Supplement), read-out: Dm Value (95% Confidence Interval), Individually, Second Agent.
The mark [5] stands for this setting: Daudi growth inhibition, second agent alone, Table 8, read-out: Dm Value (95% Confidence Interval), Individually, Second Agent.
Where [6] appears, read: SPA-05 (Daudi-e01), single agent, dilution 1:3, read-out: Prism IC50.
Setting [7] is: SPA-08 (Daudi-e02), single agent, dilution 1:1.5, read-out: CalcuSyn Dm.
Setting [8] is: SPA-08 (Daudi-e02), single agent, dilution 1:1.5, read-out: Prism IC50.
Setting [9] is: average of preliminary single-agent experiments, read-out: Average IC50, Dm value.
[10] abbreviates: read-out: approximate Dm values for the second drugs as single agents.
Where [11] appears, read: SKMES growth inhibition, second agent alone, one value per plate (Experiment ID), read-out: Dm Value (95% Confidence Interval), Individually, Second Agent.
Setting [12] is: SKMES, single agent on the same plate as the combination, read-out: Dm Value, Individually, Second Agent.
[13] abbreviates: SPA-02 (SKMES-e22), single agent, dilution 1:3, read-out: Prism IC50.
Where [14] appears, read: average of preliminary single-agent experiments, SKMES, read-out: Average IC50, Dm value.
[15] abbreviates: HT-29, HT29, single agent on the same plate as the combination, read-out: Dm Value, Individually, Second Agent.
Setting [16] is: HT-29, SPA-01 (HT29-e21), single agent, dilution 1:3, read-out: Prism IC50.
[17] abbreviates: HT-29, SPA-04 (HT29-e22), single agent, dilution 1:1.5, read-out: Prism IC50.
The mark [18] stands for this setting: HT-29, average of preliminary single-agent experiments, HT29, read-out: Average IC50, Dm value.

As to `Nc1ccn([C@@H]2O[C@H](CO)[C@@H](O)C2(F)F)c(=O)n1` [Gemcitabine, gemcitabine], the IC50 is 1.2 nM in test [1] (setting [4]); 1.2 nM in test [1] (setting [5]); 0.6 nM in test [1] (setting [6]); 1.3 nM in test [1] (setting [7]); 1.4 nM in test [1] (setting [8]); 1 nM in test [1] (setting [9]). Also, the IC50 was around 1.2 nM in test [1] (setting [10]); 1.8 nM in test [2] (setting [11]); 2.8 nM in test [2] (setting [12]); 1.5 nM in test [2] (setting [13]); 1.8 nM in test [2] (SPA-03 (SKMES-e23), single agent, dilution 1:1.5, read-out: CalcuSyn Dm); 2.5 nM in test [2] (SPA-03 (SKMES-e23), single agent, dilution 1:1.5, read-out: Prism IC50). Further, the IC50 in test [2] (setting [14]) is 2 nM; in test [3] (setting [15]), 4 nM; in test [3] (setting [16]), 4.6 nM; in test [3] (setting [17]), 10 nM; in test [3] (HT-29, SPA-10 (HT29-e24), single agent, dilution 1:1.5, read-out: CalcuSyn Dm), 6 nM; in test [3] (HT-29, SPA-10 (HT29-e24), single agent, dilution 1:1.5, read-out: Prism IC50) it was 4 nM. Moreover, in test [3] (setting [18]), the IC50 was 5 nM.
Consider `CN(Cc1cnc2nc(N)nc(N)c2n1)c1ccc(C(=O)N[C@@H](CCC(=O)O)C(=O)O)cc1` [Methotrexate, methotrexate], for which the IC50 in test [1] (setting [4]) was 45 nM; in test [1] (setting [5]) it was 45 nM; in test [1] (setting [6]), around 20 nM; in test [1] (setting [7]), 50 nM; in test [1] (setting [8]) it was 49 nM; in test [1] (setting [9]), 50 nM. Moreover, the IC50 in test [1] (setting [10]) was around 45 nM; in test [2] (setting [11]), 12 nM; in test [2] (setting [12]), 8.2 nM; in test [2] (setting [13]) it was around 0.6 nM; in test [2] (SPA-09 (SKMES-e25), single agent, dilution 1:1.5, read-out: CalcuSyn Dm), 9.5 nM; in test [2] (SPA-09 (SKMES-e25), single agent, dilution 1:1.5, read-out: Prism IC50), 8.5 nM. In addition, the IC50 was 10.7 nM in test [2] (SPA-14 (SKMES-e27), single agent, dilution 1:1.5 (carmustine also 1:2, r12), read-out: CalcuSyn Dm); 10.4 nM in test [2] (SPA-14 (SKMES-e27), single agent, dilution 1:1.5 (carmustine also 1:2, r12), read-out: Prism IC50); 10 nM in test [2] (setting [14]); 22 nM in test [3] (setting [15]); 25.4 nM in test [3] (setting [16]); 23 nM in test [3] (HT-29, SPA-04 (HT29-e22), single agent, dilution 1:1.5, read-out: CalcuSyn Dm). The IC50 in test [3] (setting [17]) was 18 nM; in test [3] (setting [18]), 22 nM.
